These results are taken from patent publication US20230218707A1, “NOVEL PEPTIDE INHIBITORS OF BETA-LACTAMASE AGAINST ANTIBIOTIC RESISTANCE” (priority 2020, published 2023).

Residues, ends and D or L forms follow the SMILES beside them. Bounds are passed on as bounds.

One assay relates to MRSA strain NRS384. In words: Growth of MRSA strain NRS384 with peptide and amoxicillin. The format is cell-based, Staphylococcus aureus. How it is done: In order to assess the potency of the peptides against MRSA, the peptides were tested on MRSA strain NRS384, which is widely used for studying MRSA infections.
The subject of assay [1] is Escherichia coli ATCC 35218. Format: cell-based. Particulars: for enhancement of amoxicillin killing of ATCC35218: 32 μg/ml amoxicillin, FIG. 1 / FIG. 2A. How it is done:
The activity of peptide inhibitors was assessed in Escherichia coli ATCC 35218 strain, which is a TEM-1 producing control E. coli strain commonly used in testing β-lactamase inhibitor activity, and which is resistant to amoxicillin by expressing TEM-1 β-lactamase. Peptide inhibitors that can inhibit TEM-1 function will lower minimum inhibitory concentration (MIC) of the amoxicillin against the resistant bacteria, which will be used to measure the potency of peptide inhibitors in bacteria. Bacterial susceptibility to amoxicillin and β-lactamase inhibitors were determined by broth microtiter dilution (BMD) according to the Clinical and Laboratory Standards Institute (CLSI) methodology. The tests were done using checkboard method with different amoxicillin concentrations (0-128 μg/ml). For the control group, clavulanic acid concentration was about 4 μg/ml.

A further assay deals with NRS384. Nature of the assay: Serial passage resistance selection of NRS384. The format is cell-based, Staphylococcus aureus.
The next assay deals with T1, PBP2a (Staphylococcus aureus, UniProt P07944).
T1 construct: purchased RayBiotech, GA
Nature of the assay: In vitro binding assay, Bocillin FL binding to PBP2a (SDS-PAGE fluorescence). The following applies: preliminary data, FIG. 3A. From the text: More peptides were designed to target both PBP2a and β-lactamase which are predicted to enhance amoxicillin killing of MRSA. […] The top 6 best-scored peptides were synthesized. […] In the absence of peptide competitors, Bocillin FL bound to PBP2a and then gave rise to fluorescence signal when the protein was resolved on an SDS-PAGE gel.

A further assay concerns the target TEM-1 (Escherichia coli, UniProt P62593). The following applies: literature peptide, Huang et al. 2003; cited from earlier work.
In another assay the test system is ATCC35218 cells. Nature of the assay: Confocal microscopy of uptake of fluorescent labeled peptide. The format is cell-based, E. coli. Particulars: 5(6)-FAM label at N-terminus. How it is done:
To confirm that the CPP enhanced the E. coli uptake of the peptide, the BP100-T61-25 peptide was labeled with 5(6)-FAM [5-(and-6)-Carboxyfluorescein at the N-terminus and incubated with ATCC35218 cells. […] It is noted that significant enhancement of amoxicillin potency against resistant bacteria can be achieved by linking CPPs to peptide inhibitor.

For a further assay, the system named is MRSA strain (JE2). Nature of the assay: Growth of MRSA strain JE2 with peptide and ceftizoxime. Format: cell-based, Staphylococcus aureus. The following applies: JE2, 8 μg/ml ceftizoxime (FIG. 4). How it is done:
Some of the MRSA strains also developed resistance against cephalosporin, which are improved β-lactams developed to overcome some of the early penicillin resistance. BP100-T61-25's synergy with Ceftizoxime, which is a third generation cephalosporin on a MRSA strain (JE2) that is resistant to cephalosporin, was tested.

T1 sequence (P07944 whole entry): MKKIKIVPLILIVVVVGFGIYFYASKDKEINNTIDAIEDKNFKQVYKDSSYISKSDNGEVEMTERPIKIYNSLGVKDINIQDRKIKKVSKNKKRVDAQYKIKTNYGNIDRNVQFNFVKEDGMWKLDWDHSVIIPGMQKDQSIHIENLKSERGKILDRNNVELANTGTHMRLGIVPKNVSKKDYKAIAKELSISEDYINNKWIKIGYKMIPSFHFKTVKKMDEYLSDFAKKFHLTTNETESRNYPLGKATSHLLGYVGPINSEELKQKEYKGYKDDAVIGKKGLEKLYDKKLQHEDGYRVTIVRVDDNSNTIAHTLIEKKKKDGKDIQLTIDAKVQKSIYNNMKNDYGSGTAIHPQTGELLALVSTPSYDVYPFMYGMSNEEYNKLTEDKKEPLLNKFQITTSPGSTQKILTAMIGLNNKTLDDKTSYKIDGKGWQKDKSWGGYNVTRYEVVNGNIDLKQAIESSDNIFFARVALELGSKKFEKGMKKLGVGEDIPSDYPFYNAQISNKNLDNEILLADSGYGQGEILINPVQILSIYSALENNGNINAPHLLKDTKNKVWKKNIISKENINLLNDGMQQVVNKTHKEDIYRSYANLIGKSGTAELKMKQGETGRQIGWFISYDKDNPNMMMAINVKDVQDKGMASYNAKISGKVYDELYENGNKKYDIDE
Sequence of TEM-1 (P62593 24-286 limits assumed): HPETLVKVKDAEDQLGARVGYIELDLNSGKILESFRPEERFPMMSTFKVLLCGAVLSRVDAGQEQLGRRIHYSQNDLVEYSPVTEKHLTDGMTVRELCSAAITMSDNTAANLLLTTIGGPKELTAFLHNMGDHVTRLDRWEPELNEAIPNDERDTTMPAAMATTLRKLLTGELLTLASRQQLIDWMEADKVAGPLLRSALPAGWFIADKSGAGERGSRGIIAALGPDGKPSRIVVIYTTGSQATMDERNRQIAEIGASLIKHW

In the case of “KTFVVRALASCKFFKFFKFF [Peptide T63-07-CPP, T63-07 conjugated with CPP]”, in the assay on MRSA strain NRS384 (NRS384, amoxicillin 32 and 64 μg/ml, FIG. 3B), the “peptide concentration significantly enhancing amoxicillin inhibition of MRSA growth” value was 32 µg/mL.
With “KFFKFFKFFKKTYLAQAAATG [Peptide T63-1, cell wall-permeating peptide attached to peptide T61-25]”, the “enhancement of amoxicillin killing of ATCC35218” value (“enhancement … of ATCC35218” for short) in assay [1] is “Significant enhancement of amoxicillin killing of bacteria”. The “enhancement of amoxicillin potency compared with clavulanate” value in assay [1] (ATCC35218, FIG. 1) was “enhanced amoxicillin potency significantly more than clavulanate”.
One may read the MIC as the least concentration at which growth counts as inhibited. Take `CC1(C)S[C@@H]2[C@H](NC(=O)[C@H](N)c3ccc(O)cc3)C(=O)N2[C@H]1C(=O)O` [amoxicillin, reference compound]: the MIC against MRSA strain NRS384 (Staphylococcus aureus) is greater than 256 µg/mL.
Turning to “CFFKDELKTYLAQAAATG [Peptide T63-2, cell wall-permeating peptide attached to peptide T61-25]”, the “enhancement … of ATCC35218” value in assay [1] is recorded as “moderate effect at enhancing amoxicillin potency”.
As for `O=C(O)c1cn(C2CC2)c2cc(N3CCNCC3)c(F)cc2c1=O` [ciprofloxacin, reference compound], in the assay on NRS384 (Staphylococcus aureus, NRS384, read-out: bacterial MIC to ciprofloxacin after serial passage), the MIC is greater than 256 µg/mL.
With `CC(C)C[C@H](NC(=O)[C@H](Cc1ccc(O)cc1)NC(=O)[C@@H](NC(=O)[C@@H](N)CCCCN)[C@@H](C)O)C(=O)N[C@@H](C)C(=O)N[C@@H](CCC(N)=O)C(=O)N[C@@H](C)C(=O)N[C@@H](C)C(=O)N[C@@H](C)C(=O)N[C@H](C(=O)NCC(=O)O)[C@@H](C)O` [Peptide T61-25], the “inhibition of Bocillin FL binding to PBP2a” value (“inhibition … to PBP2a” for short) on PBP2a is on record as “inhibitory effect”.
`CC(C)C[C@H](NC(=O)[C@H](C)NC(=O)[C@H](CCCNC(=N)N)NC(=O)[C@@H](NC(=O)[C@@H](NC(=O)[C@H](Cc1ccccc1)NC(=O)[C@@H](NC(=O)[C@@H](N)CCCCN)[C@@H](C)O)C(C)C)C(C)C)C(=O)N[C@@H](C)C(=O)N[C@@H](CO)C(=O)O` [Peptide T63-07]: the “inhibition … to PBP2a” value at PBP2a is “inhibitory effect”.
Regarding `C[C@H](NC(=O)[C@H](Cc1ccccc1)NC(=O)[C@H](CC(=O)O)NC(=O)CNC(=O)[C@H](CO)NC(=O)CNC(=O)CN)C(=O)N[C@@H](CCCNC(=N)N)C(=O)N[C@@H](CO)C(=O)N[C@@H](CO)C(=O)N[C@@H](Cc1ccc(O)cc1)C(=O)O` [Peptide T66-12], on PBP2a, the “inhibition … to PBP2a” value is recorded as “inhibitory effect”.
The Ki is the equilibrium dissociation constant of an inhibitor or competing ligand from its target. RRGHYY-NH2: the Ki at TEM-1 is 136 µM.
Take `CC[C@H](C)[C@H](NC(=O)[C@H](CCCCN)NC(=O)[C@H](CCCCN)NC(=O)[C@H](Cc1ccccc1)NC(=O)[C@H](CC(C)C)NC(=O)[C@H](CCCCN)NC(=O)[C@@H](N)CCCCN)C(=O)N[C@@H](CC(C)C)C(=O)N[C@@H](CCCCN)C(=O)N[C@@H](Cc1ccc(O)cc1)C(=O)N[C@@H](CC(C)C)C(=O)N[C@@H](CCCCN)C(=O)N[C@H](C(=O)N[C@@H](Cc1ccc(O)cc1)C(=O)N[C@@H](CC(C)C)C(=O)N[C@@H](C)C(=O)N[C@@H](CCC(N)=O)C(=O)N[C@@H](C)C(=O)N[C@@H](C)C(=O)N[C@@H](C)C(=O)N[C@H](C(=O)NCC(=O)O)[C@@H](C)O)[C@@H](C)O` [BP100-T61-25] (H-KKLFKKILKYLKTYLAQAAATG-OH; N-terminus and C-terminus assumed): the “enhancement … of ATCC35218” value in assay [1] is on record as “Marked enhancement of amoxicillin (32 μg/ml) killing of bacteria”. Also, the “peptide dose close to the MIC” value in assay [1] (ATCC 35218) was roughly 8 µg/mL. Besides, the “peptide concentration with strong inhibition of bacterial growth” value in assay [1] (ATCC35218, with 32 μg/ml amoxicillin) is 8 to 16 µg/mL. In assay [1] (ATCC35218, without amoxicillin), the “peptide concentration significantly inhibiting bacterial growth” value is 16 µg/mL. Further, the “peptide internalization into E. coli cells” value in the assay on ATCC35218 cells is given as “peptide internalization into E. coli cells was observed”. Besides, in the assay with MRSA strain NRS384 (NRS384, amoxicillin 32 μg/ml, FIG. 3C), the “peptide concentration enhancing amoxicillin killing of MRSA” value came to 16 µg/mL. Also, the “peptide concentration significantly enhancing ceftizoxime's killing of JE2” value in the assay with MRSA strain (JE2) is 8 µg/mL. In addition, the “peptide concentration sufficient to inhibit bacterial growth after serial passage” value in the assay with NRS384 (NRS384 passages 12-15, with 32 μg/ml amoxicillin) is 16 µg/mL.
